# Read-outs that look alike come from different tables or passages of the source.
# Key:
# [1] = system: dexamethasone-induced mouse osteoporosis model; test: Serum bone formation and resorption markers and calcium; type: in vivo, C57BL/6 mice
# Protocol: (§1) To determine the anabolic effect of orally administered TRP/LDA/DA-DM on GC-induced osteoporosis, 9-week-old female C57BL/6 mice were randomly divided into 6 groups (n=10 per group): Control group (normal) (SC injection of normal saline once daily); Control group (DEX) (SC injection of 0.022 mg/kg DEX once daily); TRP-SC (0.02) (SC injection of 0.02 mg/kg TRP dissolved in physiological saline containing 0.022 mg/kg DEX once daily); TRP-oral (0.4) (SC injection of 0.022 mg/kg DEX dissolved in water with 0.4 mg/kg TRP orally once daily); RP (1:5:7)-15 (0.4) (once daily oral administration of TRP (1:5:7)-15 equivalent to 0.4 mg/kg TRP with SC injection of 0.022 mg/kg DEX); and TRP (1:5:7)-15 (0.8) (once daily oral administration of TRP (1:5:7)-15 equivalent to 0.8 mg/kg TRP with SC injection of 0.022 mg/kg DEX). Blood samples were collected for biochemical analysis 4 weeks after treatment.
# After the final treatment once daily, serum samples were collected from mouse whole blood by centrifugation at 2000×g for 20 minutes. Then, the serum levels of osteocalcin, procollagen I N-terminal pro-peptide (PINP), and C-terminal cross-linked telopeptide of type I collagen (CTx) in each sample were determined according to the manufacturer's instructions using the Mouse Osteocalcin ELISA kit (LifeSpan BioSciences, Inc., Seattle, WA, USA), Rat/Mouse PINP EIA kit (Immunodiagnostic Systems Holdings Ltd., Tyne & Wear, UK), and RatLaps™ CTx-I EIA (Immunodiagnostic Systems Holdings Ltd.) was used to confirm each. In addition, the serum calcium level was confirmed through a colorimetric assay at 560 nm (Sigma-Aldrich).
# [2] = system: dexamethasone-induced mouse osteoporosis model; test: Anti-osteoporotic effect, femur micro-CT and histology; type: in vivo, C57BL/6 mice; details: 4 weeks
# Protocol: as §1
# In addition, femurs from 10 mice in each group were collected and fixed in 4% paraformaldehyde for bone density and histomorphometric analysis. The trabecular bone microstructure of the left femur was investigated using a Quantum GX micro-computed tomography (micro-CT) imaging system (PerkinElmer, Hopkinton, MA, USA) located at the Korea Institute of Basic Science (Gwangju, Korea). X-ray source settings included a voltage of 90 kV and a current of 88 uA, with a field of view of 10 mm (voxel size, 20 μm; scan time, 4 min). Three-dimensional (3D) images were obtained with 3D Viewer, an existing software in Quantum GX, and the resolution was set to 4.5 μm. After scanning, the structural parameters of the trabecular bone were analyzed using Analyze 12.0 software (Analyze Direct, Overland Park, KS, USA).
# For histological observations, formalin-fixed femurs were […] in 10% ethylenediaminetetraacetic acid (EDTA) and dehydrated by passing through a graded ethanol series. Calcified femurs were then embedded in paraffin wax, cut into 5-μm-thick sections, and stained with hematoxylin and eosin (H&E). Histological sections were observed under an optical microscope (Bx41; Olympus, Tokyo, Japan), and photographs were taken focusing on the central portion of the growth plate.
# [3] = Particle size, PDI and zeta potential (dynamic light scattering) and TEM; type: physicochemical; details: dispersed in deionized water, 25° C.
# Protocol: The characterization of the secondary structure of RP/LDA/DA-DM was confirmed by […] of TRP, TRP-DM, TRP/LDA/DA, and TRP/LDA/DA-DM, using 10 µM of the complex in water at 20° C. Measurements were made in the 180 to 260 nm range on a JASCO spectropolarimeter (Jasco Inc., Easton, MD, USA) using a 10 mm cuvette. All spectra were background-corrected and calculated in units of average residual ellipticity. This represents an average of 10 scan values. The optimized TRP/LDA/DA-DM [i.e., TRP (1:5:7)-15] was also characterized for average particle size, polydispersity index (PDI), and zeta potential using a dynamic light scattering analyzer (Malvern Zetasizer Nano ZS90; Malvern Instruments, Malvern, UK) at 25° C. TRP/LDA/DA-DM was dispersed in deionized water and sonicated for 1 min to minimize multi-scattering effects. In addition, morphological evaluation of the TRP formulation was performed by transmission electron microscopy (TEM). The diluted dispersion was placed on a copper grid, excess fluid was removed using filter paper, and negative staining was performed with a 2% aqueous solution of phosphortungstic acid. The prepared grids were observed by high-resolution TEM (HRTEM; JEM-200; JEOL, Tokyo, Japan).
# [4] = Oral absorption: plasma TRP pharmacokinetics; type: in vivo, SD mice; details: SD, mouse; for AUC(0-inf) / AUC(0-t) / Cmax / Tmax / half-life: single dose, n=5
# Protocol: The oral absorption of TRP/LDA/DA-DM in mice was evaluated by determining the effectiveness of electrostatic complexes of TRP with LDA and DA and micellar formulations using DM. After fasting overnight, SD mice were orally administered 400 μL of TRP-Oral (1.6) (1.6 mg/kg TRP dissolved in water) or TRP (1:5:7)-15 (1.6) (equivalent to 1.6 mg/kg TRP). In addition, animals were injected subcutaneously with 200 μL of TRP-SC (0.04) (0.04 mg/kg TRP dissolved in physiological saline) to evaluate the relative oral bioavailability. Blood samples (250 μL) were collected in heparinized tubes (lithium heparin) from a cannulated femoral vein at specified time points (0, 0.167, 0.5, 1, 1.5, 2, 3, 4, 6 hours). Finally, plasma was separated by centrifugation (2500×g, 15 min, 4° C.) and stored at […] until analysis.
# The plasma drug concentration of each sample was determined by UPLC-MS/MS. To construct a standard calibration curve, 180 μL of blank plasma was transferred to a tube, and then 10 μL of TRP at concentrations of 100, 50, 25, 10, 5, 2.5, 1, and 0 (blank) ng/ml was added to the blank plasma. To measure plasma drug concentrations after drug administration, 180 μL of mouse plasma samples at different time points were transferred to another tube, and then 10 μL hPTH (1-38) aqueous solution (100 ng/ml) (as an internal standard [IS]) was added to the TRP and blank plasma or drug-administered plasma samples. The samples were then precipitated by adding 200 μL acetonitrile containing 5% ammonium hydroxide. The precipitated sample was further diluted with 1 mL of water and centrifuged at 4° C. for 15 min at 4,000 rpm. The supernatant was extracted using the solid phase extraction (SPE) method and an Oasis® HLB uElution 96-well plate (Waters Corporation, Milford, MA, USA). Briefly, a 96-well plate was conditioned with 200 μL of methanol and then equilibrated with 200 μL of water. Four 350 μL aliquots of the supernatant were then added to each Oasis HLB uElution well. After the addition of standards or samples, the wells were washed with 200 μL of water containing 5% methanol. Then, TRP and IS were eluted with 25 μL of acetonitrile:water:trifluoroethanol:trifluoroacetic acid (60:34:5:1, v/v/v/v) mixture in two sequential aliquots. After further dilution of the eluate with 50 μL of water, 10 μL was injected into a UPLC system (Waters ACQUITY UPLC, Waters Corporation) equipped with an ACQUITY UPLC Peptide BEH C18 column (2.1×50 mm, 1.7 μm, 300 Å, Waters Corporation). The sample was placed at a low temperature of 6° C., and the column temperature was maintained at 60° C. during the analysis. Mobile phase A is composed of 0.5% (v/v) formic acid in water, and mobile phase B is composed of acetonitrile. TRP and IS were eluted at a gradient flow rate of 0.3 mL/min, where mobile phase A was equal to 85% (initial), 85% (0.8 min), 70% (1.2 min), 70% (2.2 min), 65% (2.7 min), 10% (3.0 min), 10% (4.0 min), 85% (5 min), and 85% (5 min). For ionization, a mass spectrometer (Xevo™ TO-S; Waters Corporation) was used in positive ion multiple reaction monitoring mode with electrospray voltage, source temperature, desolvation temperature, and desolvation gas flow rate of 3.0 kV, 150° C., 500° C., and 800 L/h, respectively. Quantification was performed with the transition of m/z 589.40→656.40 at 45 V cone voltage and 13 eV collision energy for TRP and m/z 744.20→855.50 at 20 V cone voltage and 20 eV collision energy for IS.
# [5] = SC 0.022 mg/kg DEX once daily, 4 weeks
# [6] = SC 0.02 mg/kg TRP once daily, 4 weeks
structure (smiles),measurement,setting,value
"C[C@@H]1C[C@H]2[C@@H]3CCC4=CC(=O)C=C[C@]4(C)[C@@]3(F)[C@@H](O)C[C@]2(C)[C@@]1(O)C(=O)CO [DEX, dexamethasone]",serum CTx increase compared to the control (normal) group,[1]; [5],48.9%
same,serum PINP reduction compared to the control (normal) group,[1]; [5],26.0%
same,BMD of the total femur,[2]; SC 0.022 mg/kg DEX once daily,123 ± 7.92 mg/mL
same,SMI change compared to the control (normal) group,[2]; SC 0.022 mg/kg DEX once daily,−21.1%
same,Tb.Th change compared to the control (normal) group,[2]; SC 0.022 mg/kg DEX once daily,−7.98%
"CCCCCCCCCCCCO[C@@H]1O[C@H](CO)[C@@H](O[C@H]2O[C@H](CO)[C@@H](O)[C@H](O)[C@H]2O)[C@H](O)[C@H]1O [DM, n-dodecyl-β-D-maltoside]",Particle size,[3],7.43 nm
same,Polydispersity index (PDI),[3],0.045
same,Zeta potential,[3],−0.260 mV
"CC[C@H](C)[C@H](NC(=O)[C@H](CCC(=O)O)NC(=O)[C@H](CO)NC(=O)[C@@H](NC(=O)[C@@H](N)CO)C(C)C)C(=O)N[C@@H](CCC(N)=O)C(=O)N[C@@H](CC(C)C)C(=O)N[C@@H](CCSC)C(=O)N[C@@H](Cc1cnc[nH]1)C(=O)N[C@@H](CC(N)=O)C(=O)N[C@@H](CC(C)C)C(=O)NCC(=O)N[C@@H](CCCCN)C(=O)N[C@@H](Cc1cnc[nH]1)C(=O)N[C@@H](CC(C)C)C(=O)N[C@@H](CC(N)=O)C(=O)N[C@@H](CO)C(=O)N[C@@H](CCSC)C(=O)N[C@@H](CCC(=O)O)C(=O)N[C@@H](CCCN=C(N)N)C(=O)N[C@H](C(=O)N[C@@H](CCC(=O)O)C(=O)N[C@@H](Cc1c[nH]c2ccccc12)C(=O)N[C@@H](CC(C)C)C(=O)N[C@@H](CCCN=C(N)N)C(=O)N[C@@H](CCCCN)C(=O)N[C@@H](CCCCN)C(=O)N[C@@H](CC(C)C)C(=O)N[C@@H](CCC(N)=O)C(=O)N[C@@H](CC(=O)O)C(=O)N[C@H](C(=O)N[C@@H](Cc1cnc[nH]1)C(=O)N[C@@H](CC(N)=O)C(=O)N[C@@H](Cc1ccccc1)C(=O)O)C(C)C)C(C)C [TRP, Human PTH (1-34) acetate]",PINP higher compared to the control (DEX) group,[1]; [6],1.19 times
same,serum osteocalcin level higher than TRP-oral (0.4) group,[1]; [6],9.68%
same,serum osteocalcin level higher than control group (DEX),[1]; [6],28.2%
same,serum osteocalcin level higher than control group (normal),[1]; [6],18.2%
same,"serum calcium levels, maximum increase compared to the control (normal) group","[1]; SC 0.02 mg/kg TRP, at 6 hours, day 28",21.4%
same,PINP secretion increase compared to DEX-treated mice only,"[1]; oral 0.4 mg/kg TRP once daily, 4 weeks",not recovered
same,bioavailability,"[4]; Oral, 1.6 mg/kg TRP, relative to SC 0.04 mg/kg",0.559 ± 0.293%
same,AUC(0-inf),"[4]; Oral, 1.6 mg/kg TRP",0.296 ± 0.0189 ng·h/mL
same,AUC(0-t),"[4]; Oral, 1.6 mg/kg TRP",0.135 ± 0.0704 ng·h/mL
same,Cmax,"[4]; Oral, 1.6 mg/kg TRP",0.155 ± 0.0572 ng/mL
same,Tmax,"[4]; Oral, 1.6 mg/kg TRP",78 ± 16.2 min
same,half-life,"[4]; Oral, 1.6 mg/kg TRP",43.2 ± 10.8 min
same,bioavailability,"[4]; SC, 0.04 mg/kg TRP (reference), read-out: Relative bioavailability",100%
same,AUC(0-inf),"[4]; SC, 0.04 mg/kg TRP",0.752 ± 0.0269 ng·h/mL
same,AUC(0-t),"[4]; SC, 0.04 mg/kg TRP",0.601 ± 0.12 ng·h/mL
same,Cmax,"[4]; SC, 0.04 mg/kg TRP",0.807 ± 0.135 ng/mL
same,Tmax,"[4]; SC, 0.04 mg/kg TRP",30 min
same,half-life,"[4]; SC, 0.04 mg/kg TRP",24 min
same,"trabecular bone microarchitecture, 3D micro-CT image of the femur","[2]; SC 0.02 or oral 0.4 and 0.8 mg/kg TRP, versus control (DEX) and TRP-Oral (0.4)",denser trabecular bone microarchitecture
same,"trabecular bone, H&E-stained histology of distal femora","[2]; SC 0.02 or oral 0.4 or 0.8 mg/kg TRP, versus control (DEX) and TRP-Oral (0.4)",increased structural integrity and denser trabecular bone microarchitecture
same,BMD higher than the DEX group,[2]; SC 0.02 mg/kg TRP once daily,29.4%
same,BV/TV higher than the control (DEX) group,[2]; SC 0.02 mg/kg TRP once daily,13.2%
same,Tb. Sp lower than the control (DEX) group,[2]; SC 0.02 mg/kg TRP once daily,17.4%
same,Tb.N higher than the control (DEX) group,[2]; SC 0.02 mg/kg TRP once daily,2.8%
same,Tb.Th higher than the control (DEX) group,[2]; SC 0.02 mg/kg TRP once daily,45.2%
same,BMD higher than the control (DEX) group,[2]; oral 0.4 mg/kg TRP once daily,did not produce a significant improvement
